From ChEMBL document CHEMBL5653616, “FRAX597, a small molecule inhibitor of the p21-activated kinases, inhibits tumorigenesis of neurofibromatosis type 2 (NF2)-associated Schwannomas” (J Biol Chem, 2013)
pIC50: −log10 of the molar value. The source made the active and inactive calls. The rule behind the calls is not given here.

Key:
SC4 [1] = assay: Antiproliferative activity against mouse SC4 [Mouse schwannoma] cells assessed as reduction in cell viability at 1 uM measured upto 96 hrs by coulter counter analysis; format: functional, cell-based
[2] = molecular target: Serine/threonine-protein kinase PAK 1 (Homo sapiens, UniProt Q13153); assay: Inhibition of TEV protease fused 6His-tagged PAK1 KD (249 to 545 residues) (unknown origin) expressed in Sf21 cells by Z-LYTE biochemical assay
Sequence of Serine/threonine-protein kinase PAK 1 (Homo sapiens, UniProt Q13153) (Q13153 whole entry, the tested form may be a part): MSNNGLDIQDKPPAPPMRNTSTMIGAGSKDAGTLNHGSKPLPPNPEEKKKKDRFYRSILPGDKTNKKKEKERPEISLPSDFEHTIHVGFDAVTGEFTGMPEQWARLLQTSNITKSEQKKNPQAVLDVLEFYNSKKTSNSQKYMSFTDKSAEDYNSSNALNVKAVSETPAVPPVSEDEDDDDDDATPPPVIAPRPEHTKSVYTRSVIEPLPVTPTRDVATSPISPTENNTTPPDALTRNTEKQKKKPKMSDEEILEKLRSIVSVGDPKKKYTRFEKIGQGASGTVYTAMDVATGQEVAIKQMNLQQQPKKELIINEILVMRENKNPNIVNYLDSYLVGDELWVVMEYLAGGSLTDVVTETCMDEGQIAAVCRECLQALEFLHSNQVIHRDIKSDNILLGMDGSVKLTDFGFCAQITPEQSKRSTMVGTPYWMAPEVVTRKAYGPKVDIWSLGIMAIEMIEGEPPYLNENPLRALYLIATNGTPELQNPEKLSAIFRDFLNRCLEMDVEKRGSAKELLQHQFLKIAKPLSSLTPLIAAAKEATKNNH

[3] = molecular target: T1, Serine/threonine-protein kinase PAK 4 (Homo sapiens, UniProt O96013); assay: Inhibition of PAK4 (unknown origin) by Z-LYTE biochemical assay
Target sequence in this assay (O96013 whole entry): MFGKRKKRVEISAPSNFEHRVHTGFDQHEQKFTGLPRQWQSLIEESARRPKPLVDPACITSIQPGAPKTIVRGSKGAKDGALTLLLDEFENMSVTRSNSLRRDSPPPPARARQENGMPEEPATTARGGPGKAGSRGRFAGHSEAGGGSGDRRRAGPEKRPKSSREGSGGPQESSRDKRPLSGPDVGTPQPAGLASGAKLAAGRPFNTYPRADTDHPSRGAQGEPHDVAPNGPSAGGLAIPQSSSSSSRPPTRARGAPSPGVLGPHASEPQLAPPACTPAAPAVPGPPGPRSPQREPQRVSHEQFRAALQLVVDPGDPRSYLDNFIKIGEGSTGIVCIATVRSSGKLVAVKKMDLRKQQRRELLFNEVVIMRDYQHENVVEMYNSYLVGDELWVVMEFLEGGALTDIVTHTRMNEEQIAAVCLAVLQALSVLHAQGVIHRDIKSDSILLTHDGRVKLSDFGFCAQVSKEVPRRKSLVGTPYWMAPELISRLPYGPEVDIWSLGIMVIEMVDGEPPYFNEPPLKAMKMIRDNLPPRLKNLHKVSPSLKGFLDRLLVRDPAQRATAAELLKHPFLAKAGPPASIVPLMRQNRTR

[4] = molecular target: Serine/threonine-protein kinase PAK 1 (Mus musculus, UniProt O88643)
Description: Inhibition of PAK1 in mouse SC4 [Mouse schwannoma] cells assessed as reduction in p-PAK1 at serine 144 residue at 1 to 5 uM incubated for 2 hrs by Western blotting analysis

[5] = molecular target: Proto-oncogene tyrosine-protein kinase receptor Ret (Homo sapiens) (UniProt P07949); details: dose 100.0 nM
Sequence of Proto-oncogene tyrosine-protein kinase receptor Ret (Homo sapiens) (P07949 whole entry): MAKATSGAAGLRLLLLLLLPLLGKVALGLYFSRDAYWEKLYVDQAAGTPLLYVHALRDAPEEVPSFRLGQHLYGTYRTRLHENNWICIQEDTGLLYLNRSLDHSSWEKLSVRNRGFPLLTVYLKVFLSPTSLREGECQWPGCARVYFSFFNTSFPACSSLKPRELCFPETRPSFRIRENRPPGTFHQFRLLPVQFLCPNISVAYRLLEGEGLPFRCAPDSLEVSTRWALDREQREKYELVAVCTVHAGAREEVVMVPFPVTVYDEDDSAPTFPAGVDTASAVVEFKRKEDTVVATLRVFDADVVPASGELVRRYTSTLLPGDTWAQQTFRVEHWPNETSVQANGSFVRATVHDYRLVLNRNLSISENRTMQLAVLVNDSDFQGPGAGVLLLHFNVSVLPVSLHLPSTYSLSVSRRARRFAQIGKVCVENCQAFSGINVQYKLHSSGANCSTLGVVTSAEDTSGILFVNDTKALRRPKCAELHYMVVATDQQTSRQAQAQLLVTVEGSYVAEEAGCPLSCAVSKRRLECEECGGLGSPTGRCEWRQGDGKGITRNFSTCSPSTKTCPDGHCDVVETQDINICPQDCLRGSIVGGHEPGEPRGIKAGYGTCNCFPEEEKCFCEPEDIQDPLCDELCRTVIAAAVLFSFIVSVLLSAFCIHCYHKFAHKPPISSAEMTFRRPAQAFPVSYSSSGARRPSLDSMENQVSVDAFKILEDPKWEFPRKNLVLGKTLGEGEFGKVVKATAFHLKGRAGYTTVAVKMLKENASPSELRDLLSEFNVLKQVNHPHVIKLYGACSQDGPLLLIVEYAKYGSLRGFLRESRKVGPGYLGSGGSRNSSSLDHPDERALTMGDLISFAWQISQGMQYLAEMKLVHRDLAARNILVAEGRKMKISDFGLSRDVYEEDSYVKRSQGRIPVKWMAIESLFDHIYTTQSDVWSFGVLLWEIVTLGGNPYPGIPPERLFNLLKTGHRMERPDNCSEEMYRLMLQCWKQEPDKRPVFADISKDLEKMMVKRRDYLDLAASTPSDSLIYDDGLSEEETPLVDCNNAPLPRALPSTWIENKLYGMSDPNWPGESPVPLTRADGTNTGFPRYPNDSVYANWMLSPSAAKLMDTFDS
Description: Inhibition of RET (unknown origin) at 100 nM by Z-LYTE biochemical assay relative to control

SC4 [6] = assay: Downregulation of TEK1 expression in mouse SC4 [Mouse schwannoma] cells by Western blotting analysis; format: functional, cell-based
SC4 [7] = assay: Antitumor activity against Nf2 knockout mouse SC4 [Mouse schwannoma] cells harbouring pLuc-mCherry implanted in NOD/SCID mouse assessed as reduction in tumor growth at 100 mg/kg, po qd administered for 14 days by bioluminescence imaging analysis; format: functional, organism-based; details: time 14.0 day
[8] = Induction of cell cycle arrest in mouse SC4 [Mouse schwannoma] cells assessed as accumulation of cells at S phase at 1 uM measured upto 96 hrs by propidium iodide staining based flow cytometeric analysis (reference value: 27%); format: functional
[9] = Inhibition of PAK1 V342F mutant (unknown origin) in presence of ATP by KinaseGlo assay
[10] = Induction of cell cycle arrest in mouse SC4 [Mouse schwannoma] cells assessed as accumulation of cells at G2/M phase at 1 uM measured upto 96 hrs by propidium iodide staining based flow cytometeric analysis (reference value: 22%); format: functional
[11] = molecular target: Tyrosine-protein kinase Yes (Homo sapiens) (UniProt P07947); details: dose 100.0 nM
Sequence of Tyrosine-protein kinase Yes (Homo sapiens) (P07947 2-543 limits assumed): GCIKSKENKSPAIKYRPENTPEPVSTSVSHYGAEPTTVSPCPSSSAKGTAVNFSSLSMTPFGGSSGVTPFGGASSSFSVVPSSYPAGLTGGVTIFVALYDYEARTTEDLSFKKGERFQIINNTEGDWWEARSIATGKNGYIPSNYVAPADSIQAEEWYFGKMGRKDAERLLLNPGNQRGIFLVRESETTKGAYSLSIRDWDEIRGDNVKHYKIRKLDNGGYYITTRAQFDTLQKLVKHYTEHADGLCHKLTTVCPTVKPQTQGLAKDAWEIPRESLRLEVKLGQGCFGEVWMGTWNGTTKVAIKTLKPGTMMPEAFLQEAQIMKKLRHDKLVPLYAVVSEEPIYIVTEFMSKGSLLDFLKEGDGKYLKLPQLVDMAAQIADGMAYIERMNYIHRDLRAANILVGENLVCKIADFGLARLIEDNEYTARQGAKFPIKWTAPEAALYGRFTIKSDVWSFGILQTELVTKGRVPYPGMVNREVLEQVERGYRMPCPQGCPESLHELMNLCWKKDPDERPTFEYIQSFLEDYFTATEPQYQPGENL
Description: Inhibition of YES1 (unknown origin) at 100 nM by Z-LYTE biochemical assay relative to control

SC4 [12] = assay: Downregulation of RET expression in mouse SC4 [Mouse schwannoma] cells by Western blotting analysis; format: functional, cell-based
[13] = molecular target: Serine/threonine-protein kinase PAK 2 (Homo sapiens) (UniProt Q13177); details: dose 100.0 nM
Sequence of Serine/threonine-protein kinase PAK 2 (Homo sapiens) (Q13177 whole entry): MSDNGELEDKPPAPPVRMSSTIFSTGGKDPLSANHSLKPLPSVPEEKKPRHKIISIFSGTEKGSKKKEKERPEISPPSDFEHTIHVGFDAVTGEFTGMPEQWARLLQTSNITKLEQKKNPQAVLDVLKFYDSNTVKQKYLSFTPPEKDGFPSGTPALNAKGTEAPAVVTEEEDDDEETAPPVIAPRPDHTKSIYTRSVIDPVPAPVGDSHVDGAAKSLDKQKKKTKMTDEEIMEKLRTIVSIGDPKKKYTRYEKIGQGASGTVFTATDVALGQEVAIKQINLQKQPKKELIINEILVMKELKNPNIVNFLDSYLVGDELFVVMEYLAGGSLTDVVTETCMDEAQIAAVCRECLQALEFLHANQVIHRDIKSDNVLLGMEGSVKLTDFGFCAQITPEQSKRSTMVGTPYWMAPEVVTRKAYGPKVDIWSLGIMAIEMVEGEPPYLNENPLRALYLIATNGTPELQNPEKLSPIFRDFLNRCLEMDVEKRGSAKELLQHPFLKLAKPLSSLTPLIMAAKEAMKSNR
Description: Inhibition of PAK2 (unknown origin) at 100 nM by Z-LYTE biochemical assay relative to control

SC4 [14] = assay: Downregulation of YES1 expression in mouse SC4 [Mouse schwannoma] cells by Western blotting analysis; format: functional, cell-based
[15] = molecular target: Serine/threonine-protein kinase PAK 5 (Homo sapiens) (UniProt Q9P286); details: dose 100.0 nM
Sequence of Serine/threonine-protein kinase PAK 5 (Homo sapiens) (Q9P286 whole entry, looked up): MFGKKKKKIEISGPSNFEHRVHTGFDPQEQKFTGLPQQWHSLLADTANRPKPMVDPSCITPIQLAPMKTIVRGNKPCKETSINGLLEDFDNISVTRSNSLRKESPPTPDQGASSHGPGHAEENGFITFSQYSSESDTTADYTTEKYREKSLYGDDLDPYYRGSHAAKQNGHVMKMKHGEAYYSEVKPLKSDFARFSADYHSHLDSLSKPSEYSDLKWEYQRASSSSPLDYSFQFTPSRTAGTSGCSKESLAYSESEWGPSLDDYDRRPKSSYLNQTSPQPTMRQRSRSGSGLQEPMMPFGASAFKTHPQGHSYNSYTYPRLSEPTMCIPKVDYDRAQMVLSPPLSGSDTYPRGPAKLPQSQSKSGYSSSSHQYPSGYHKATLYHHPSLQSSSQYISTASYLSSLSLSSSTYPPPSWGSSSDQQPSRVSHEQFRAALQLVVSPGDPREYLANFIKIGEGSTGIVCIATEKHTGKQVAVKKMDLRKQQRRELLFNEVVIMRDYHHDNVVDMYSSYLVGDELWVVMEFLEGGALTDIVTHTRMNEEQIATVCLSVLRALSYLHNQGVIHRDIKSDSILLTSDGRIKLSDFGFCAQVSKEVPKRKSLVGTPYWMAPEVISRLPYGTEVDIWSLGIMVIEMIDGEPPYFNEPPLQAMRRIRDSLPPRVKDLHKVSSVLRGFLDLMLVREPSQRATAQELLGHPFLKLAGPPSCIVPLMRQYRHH
Description: Inhibition of PAK7 (unknown origin) at 100 nM by Z-LYTE biochemical assay relative to control

[16] = molecular target: Angiopoietin-1 receptor (Homo sapiens) (UniProt Q02763); details: dose 100.0 nM
Description: Inhibition of TEK (unknown origin) at 100 nM by Z-LYTE biochemical assay relative to control

[17] = Inhibition of PAK1 V342Y mutant (unknown origin) in presence of ATP by KinaseGlo assay
SC4 [18] = assay: Induction of cell cycle arrest in mouse SC4 [Mouse schwannoma] cells assessed as accumulation of cells at sub-G1 phase at 1 uM measured upto 96 hrs by propidium iodide staining based flow cytometeric analysis; format: functional
[19] = Induction of cell cycle arrest in mouse SC4 [Mouse schwannoma] cells assessed as accumulation of cells at G1 phase at 1 uM measured upto 96 hrs by propidium iodide staining based flow cytometeric analysis (reference value: 50%); format: functional
[20] = molecular target: Macrophage colony-stimulating factor 1 receptor (Homo sapiens) (UniProt P07333); details: dose 100.0 nM
Sequence of Macrophage colony-stimulating factor 1 receptor (Homo sapiens) (P07333 whole entry): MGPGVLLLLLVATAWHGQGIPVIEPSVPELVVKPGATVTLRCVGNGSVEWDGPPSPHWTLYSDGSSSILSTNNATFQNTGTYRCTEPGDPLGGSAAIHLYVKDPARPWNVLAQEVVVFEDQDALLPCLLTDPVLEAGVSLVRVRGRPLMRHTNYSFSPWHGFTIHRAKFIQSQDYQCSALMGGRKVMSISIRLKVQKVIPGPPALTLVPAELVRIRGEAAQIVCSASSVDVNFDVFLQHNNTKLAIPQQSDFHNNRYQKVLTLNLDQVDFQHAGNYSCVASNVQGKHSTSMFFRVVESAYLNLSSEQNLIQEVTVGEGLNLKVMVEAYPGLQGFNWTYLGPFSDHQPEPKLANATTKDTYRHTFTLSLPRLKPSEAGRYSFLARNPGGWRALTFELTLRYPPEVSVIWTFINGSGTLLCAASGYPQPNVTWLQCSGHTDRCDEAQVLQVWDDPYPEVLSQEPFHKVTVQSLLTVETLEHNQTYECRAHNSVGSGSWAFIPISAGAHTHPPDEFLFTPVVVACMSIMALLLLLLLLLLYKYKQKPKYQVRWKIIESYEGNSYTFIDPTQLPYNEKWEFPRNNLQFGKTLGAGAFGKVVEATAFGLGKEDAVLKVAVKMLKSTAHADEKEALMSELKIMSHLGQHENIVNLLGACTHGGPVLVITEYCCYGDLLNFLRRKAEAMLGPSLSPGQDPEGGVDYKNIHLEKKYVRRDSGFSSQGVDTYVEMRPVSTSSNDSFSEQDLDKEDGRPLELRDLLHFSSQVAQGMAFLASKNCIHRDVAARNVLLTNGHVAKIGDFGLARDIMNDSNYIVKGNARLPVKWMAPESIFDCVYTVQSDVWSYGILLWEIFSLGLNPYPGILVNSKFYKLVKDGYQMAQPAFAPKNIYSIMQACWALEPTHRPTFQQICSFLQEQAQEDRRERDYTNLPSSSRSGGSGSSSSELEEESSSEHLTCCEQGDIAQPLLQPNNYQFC
Description: Inhibition of CSF1R (unknown origin) at 100 nM by Z-LYTE biochemical assay relative to control

[21] = molecular target: T1, Serine/threonine-protein kinase PAK 4; details: dose 100.0 nM
Target sequence in this assay (O96013 whole entry, looked up): as the sequence (O96013 whole entry) above
Description: Inhibition of PAK4 (unknown origin) at 100 nM by Z-LYTE biochemical assay relative to control

[22] = molecular target: Serine/threonine-protein kinase PAK 6 (Homo sapiens) (UniProt Q9NQU5); details: dose 100.0 nM
Description: Inhibition of PAK6 (unknown origin) at 100 nM by Z-LYTE biochemical assay relative to control

SC4 [23] = assay: Downregulation of CSF1R expression in mouse SC4 [Mouse schwannoma] cells by Western blotting analysis; format: functional, cell-based
SC4 [24] = assay: Antitumor activity against Nf2 knockout mouse SC4 [Mouse schwannoma] cells harbouring pLuc-mCherry implanted in NOD/SCID mouse assessed as reduction in tumor weight at 100 mg/kg, po qd administered for 14 days; format: functional, organism-based; details: time 14.0 day

Q: For `Cc1nc(Nc2n[nH]c3c2CN(C(=O)N[C@H](CN(C)C)c2ccccc2)C3(C)C)c2sccc2n1`, which Activity (SC4 [1]) is on record?
A: Active

Q: With `CCn1c(=O)c(-c2ccc(Cl)cc2Cl)cc2cnc(Nc3ccc(N4CCN(C)CC4)cc3)nc21` as the compound, how does the pIC50 [2] read?
A: 7.70

Q: What about the pIC50 [3] of the same compound?
A: 6.25

Q: With `CCn1c(=O)c(-c2ccc(-c3cncs3)cc2Cl)cc2cnc(Nc3ccc(N4CCN(C)CC4)cc3)nc21.Cl` as the compound, how does the pIC50 [4] read?
A: 7.15

Q: And the inhibition [5]?
A: 82%

Q: And the Activity (SC4 [6])?
A: Active

Q: And the Activity (SC4 [7])?
A: Active

Q: And the Activity [8]?
A: 12%

Q: What about the pIC50 [9] of the same compound?
A: < 5.52

Q: What about the Activity [10] of the same compound?
A: 11%

Q: What about the inhibition [11] of the same compound?
A: 87%

Q: And the Activity (SC4 [12])?
A: Active

Q: And the inhibition [13]?
A: 93%

Q: What about the Activity (SC4 [14]) of the same compound?
A: Active

Q: What about the inhibition [15] of the same compound?
A: 8%

Q: And the inhibition [16]?
A: 87%

Q: And the pIC50 [3]?
A: < 5.00

Q: What about the pIC50 [17] of the same compound?
A: < 5.70

Q: And the Activity (SC4 [18])?
A: inactive

Q: And the Activity [19]?
A: 74%

Q: What about the inhibition [20] of the same compound?
A: 91%

Q: What about the inhibition [21] of the same compound?
A: 0%

Q: What about the Activity (SC4 [1]) of the same compound?
A: Active

Q: And the inhibition [22]?
A: 23%

Q: And the Activity (SC4 [23])?
A: Active

Q: What about the Activity (SC4 [24]) of the same compound?
A: Active

Q: With `CN1CCN(c2ccc(Nc3ncc4ccc(=O)n(C5CCCC5)c4n3)cc2)CC1` as the compound, how does the pIC50 [2] read?
A: 6.32

Q: What about the pIC50 [3] of the same compound?
A: 6.24
